One series concerns HCT-116. The experiment in a line: Growth inhibition of human HCT116 cells at 1 mg/mL after 48 hrs by MTT assay. Format: functional. Particulars: HCT-116, 48 h, read-out: GI.
Series [1] is described as follows: Cytotoxicity against mouse spleen lymphocytes assessed as cell viability at 1 mg/mL after 48 hrs by MTT assay relative to control. The series is classed as tissue-based, Lymphocyte. Particulars: read-out: Activity. On the technique in general: Formazan colour is commonly taken as a measure of viable cells.

Turning to `CCn1c2ccccc2c2c3c(ccc21)NC(=O)CSC3c1cccs1` (configuration not stated), the inhibition of growth at 1000 µg/mL with HCT-116 came out at 60.3%. The viability at 48 h, 1 mg/mL in series [1] stood at 45%.

For `Cc1noc2c1C(c1ccc(Br)cc1)SCC(=O)N2` (configuration not stated), the inhibition of growth at 1000 µg/mL with HCT-116 turned out to be 63%. For the same compound, the viability at 48 h, 1 mg/mL in series [1] was 157%.

As for `Cc1ccc(C2SCC(=O)Nc3onc(C)c32)cc1` (configuration not stated), in the series with HCT-116, the inhibition of growth at 1000 µg/mL was 64.7%. Besides, in series [1], the viability at 48 h, 1 mg/mL came out at 103%.

As to `O=C1CSC(c2ccc(Br)cc2)c2c(ccc3[nH]ncc23)N1` (configuration not stated), the inhibition of growth at 1000 µg/mL with HCT-116 came out at 63.4%. In addition, in series [1], the viability at 48 h, 1 mg/mL was 42.6%.

In the case of `CCn1c2ccccc2c2c3c(ccc21)NC(=O)CSC3c1ccc(Br)cc1` (configuration not stated), the inhibition of growth at 1000 µg/mL in the series with HCT-116 worked out at 62%. Moreover, the viability at 48 h, 1 mg/mL in series [1] came to 136%.

On to `Cc1nn(-c2ccccc2)c2c1C(c1ccc3c(c1)OCO3)SCC(=O)N2` (configuration not stated), for which the inhibition of growth at 1000 µg/mL with HCT-116 came to 51.3%. Further, in series [1], the viability at 48 h, 1 mg/mL amounted to 66.9%.

For `Cc1noc2c1C(c1cccs1)SCC(=O)N2` (configuration not stated), the inhibition of growth at 1000 µg/mL with HCT-116 came out at 62.6%. Moreover, the viability at 48 h, 1 mg/mL in series [1] turned out to be 160%.

For the compound `Cc1nn(-c2ccccc2)c2c1C(c1cccc([N+](=O)[O-])c1)SCC(=O)N2` (configuration not stated), the inhibition of growth at 1000 µg/mL with HCT-116 came to 54.3%. For the same compound, the viability at 48 h, 1 mg/mL in series [1] is 154%.

Take `O=C1CSC(c2ccc(Cl)cc2)c2c(ccc3[nH]ncc23)N1` (configuration not stated): in the series on HCT-116, the inhibition of growth at 1000 µg/mL is 60.9%. In addition, the viability at 48 h, 1 mg/mL in series [1] turned out to be 67.9%.

In the case of `CCn1c2ccccc2c2c3c(ccc21)NC(=O)CSC3c1ccc(C)cc1` (configuration not stated), the inhibition of growth at 1000 µg/mL with HCT-116 was determined as 53.4%. The viability at 48 h, 1 mg/mL in series [1] worked out at 93.2%.

As to `Cc1nn(-c2ccccc2)c2c1C(c1ccccc1Cl)SCC(=O)N2` (configuration not stated), in the series with HCT-116, the inhibition of growth at 1000 µg/mL was 55.3%. The viability at 48 h, 1 mg/mL in series [1] was found to be 68.7%.

As for `Cc1noc2c1C(c1ccc3c(c1)OCO3)SCC(=O)N2` (configuration not stated), the inhibition of growth at 1000 µg/mL with HCT-116 stood at 50.4%. The viability at 48 h, 1 mg/mL in series [1] was 87.2%.

For `COc1ccc(C2SCC(=O)Nc3onc(C)c32)cc1` (configuration not stated), the inhibition of growth at 1000 µg/mL in the series on HCT-116 is 60.3%. For the same compound, in series [1], the viability at 48 h, 1 mg/mL was found to be 165%.

In the case of `Cc1ccc(C2SCC(=O)Nc3ccc4[nH]ncc4c32)cc1` (configuration not stated), in the series on HCT-116, the inhibition of growth at 1000 µg/mL stood at 66.8%. The viability at 48 h, 1 mg/mL in series [1] amounted to 20.5%.

As for `COc1cc(C2SCC(=O)Nc3ccc4[nH]ncc4c32)cc(OC)c1OC` (configuration not stated), the inhibition of growth at 1000 µg/mL in the series with HCT-116 was determined as 58.2%. In series [1], the viability at 48 h, 1 mg/mL was 166%.

Turning to `CCn1c2ccccc2c2c3c(ccc21)NC(=O)CSC3c1ccc(OC)cc1` (configuration not stated), the inhibition of growth at 1000 µg/mL with HCT-116 is 58.9%. Besides, in series [1], the viability at 48 h, 1 mg/mL was 51.4%.

For `COc1ccc(C2SCC(=O)Nc3onc(C)c32)cc1OC` (configuration not stated), in the series on HCT-116, the inhibition of growth at 1000 µg/mL came out at 54.6%. For the same compound, in series [1], the viability at 48 h, 1 mg/mL was 165%.

On to `CCn1c2ccccc2c2c3c(ccc21)NC(=O)CSC3c1ccc2c(c1)OCO2` (configuration not stated), for which the inhibition of growth at 1000 µg/mL in the series with HCT-116 was found to be 51.6%. Moreover, the viability at 48 h, 1 mg/mL in series [1] was determined as 158%.

Consider `Cc1noc2c1C(c1ccccc1Cl)SCC(=O)N2` (configuration not stated), for which, in the series with HCT-116, the inhibition of growth at 1000 µg/mL is 54.6%. In series [1], the viability at 48 h, 1 mg/mL was found to be 170%.

For the compound `COc1ccc(C2SCC(=O)Nc3c2c(C)nn3-c2ccccc2)cc1` (configuration not stated), the inhibition of growth at 1000 µg/mL in the series on HCT-116 turned out to be 57.8%. The viability at 48 h, 1 mg/mL in series [1] turned out to be 78.8%.

Consider `Cc1ccc(C2SCC(=O)Nc3c2c(C)nn3-c2ccccc2)cc1` (configuration not stated), for which the inhibition of growth at 1000 µg/mL with HCT-116 is 58.4%. For the same compound, the viability at 48 h, 1 mg/mL in series [1] was found to be 25.7%.

For `Cc1nn(-c2ccccc2)c2c1C(c1ccc(Cl)cc1)SCC(=O)N2` (configuration not stated), in the series on HCT-116, the inhibition of growth at 1000 µg/mL was 50.2%. In series [1], the viability at 48 h, 1 mg/mL worked out at 82.3%.

With `O=C1CSC(c2ccc3c(c2)OCO3)c2c(ccc3[nH]ccc23)N1` (configuration not stated), in the series with HCT-116, the inhibition of growth at 1000 µg/mL worked out at 55.9%. Moreover, the viability at 48 h, 1 mg/mL in series [1] was determined as 155%.

`Cc1nn(-c2ccccc2)c2c1C(c1ccc(Cl)cc1Cl)SCC(=O)N2` (configuration not stated): the inhibition of growth at 1000 µg/mL in the series with HCT-116 is 53.3%. Also, the viability at 48 h, 1 mg/mL in series [1] turned out to be 156%.

Consider `COc1ccc(C2SCC(=O)Nc3ccc4[nH]ncc4c32)cc1` (configuration not stated), for which the inhibition of growth at 1000 µg/mL in the series with HCT-116 came out at 61.8%. Besides, in series [1], the viability at 48 h, 1 mg/mL was 44.8%.

With `CCn1c2ccccc2c2c3c(ccc21)NC(=O)CSC3c1ccc(OC)c(OC)c1` (configuration not stated), the inhibition of growth at 1000 µg/mL in the series with HCT-116 turned out to be 56.2%. For the same compound, in series [1], the viability at 48 h, 1 mg/mL worked out at 101%.

Values taken from ChEMBL document CHEMBL1933012, “Design and diversity-oriented synthesis of novel 1,4-thiazepan-3-ones fused with bioactive heterocyclic skeletons and evaluation of their antioxidant and cytotoxic activities” (Bioorg Med Chem Lett, 2012).
